The values that follow come from patent US20260216158A1, “OCULAR IMPLANT CONTAINING A TYROSINE KINASE INHIBITOR” (OCULAR THERAPEUTIX, INC., priority 2023, published 2026).

≈ marks a conversion by molar mass, not a printed value. Where “and” joins values, the source holds several entries; their conditions need not be identical. Identical values can stand only once.

Data set [1] is described as follows: Stability studies of axitinib co-crystals (Example 4.4). Format: physicochemical. The source says:
The results are also depicted in Table 8.

Data set [2] can be described thus: Solubility of axitinib prodrugs in PBS, 24 h at 22° C., HPLC (Example 6.2). Format: physicochemical. The conditions noted are these: for Mean Solubility / solubility at 24 h: PBS pH 7.2 to 7.4, 24 hours incubation at 22° C.; for solubility at 24 h / Obtained Conc. (replicate): PBS; for solubility at 24 h: 22 °C, pH 7.2, aqueous buffer, thermodynamic from solid; for Obtained Conc. (replicate): 24 h at 22° C., after dilution factor, replicates R1, R2. As for the experimental part: • PBS, pH 7.2 • 24 h at 22° C. with continuous shaking • Solubility of test item was determined by HPLC analysis with calibration curve

Test in data set [3]: as above
Format: physicochemical. The following applies: pH 7.4, replicates R1, R2.

The conditions of data set [4]: PBS pH 7.4, 37° C.
Data set [5] in a line: Stability of axitinib polymorph IV in an implant throughout 6 months (Example 11). Format: physicochemical.
The nature of data set [6]: Solubility of axitinib free base polymorphs (SAB-I, Polymorph IV) in PBS (Example 6.1). The following applies: for Solubility in PBS, Day 1 / Solubility in PBS, Day2 / Solubility in PBS, Day 5 / Solubility in PBS, Day 6 / Solubility in PBS, Day 8 / Equilibrium solubility in PBS, Average (Days 5-8): 37° C., pH 7.2 to 7.4; for Solubility in PBS, Day2: day 2; for Equilibrium solubility in PBS, Average (Days 5-8): average of days 5, 6 and 8, UPLC.

Another data set in a line: Solubility of axitinib. The conditions noted are these: PBS, 37 °C, pH 7.2, aqueous buffer, thermodynamic from solid; read-out: Solubility in PBS pH 7.2-7.4 (37° C., 5 days). Format: physicochemical.
A short description of data set [7]: physchem. The following applies: PBS, 37 °C, pH 7.4, aqueous buffer, thermodynamic from solid.
A short description of data set [8]: physchem. The conditions noted are these: aqueous with cosolvent or surfactant or cyclodextrin.
The conditions of data set [9]: cited from earlier work.
A short description of data set [10]: NHP study: bioanalysis of axitinib in plasma. The conditions noted are these: at sacrifice time points, LLOQ 0.100 ng/mL. Format: in vivo, Cynomolgus monkeys.
The conditions of data set [11]: axitinib: Rugo et al. 2005; ranibizumab, aflibercept: in the human eye; cited from earlier work.
The test system of the next data set is retinal vessel leakage. Nature of the data set: In vivo VEGF challenge study, leakage by fluorescein angiography. The following applies: rabbit VEGF challenge, scale 0 to 4. The source says:
The scoring criteria is based on Table 37B.

Data set [12] relates to VEGF-induced retinal vascular leakage. The data set can be described thus: VEGF challenge study, leakage score over time (Example 14). The following applies: fluorescein angiography, 0 no leakage, 4 no inhibition of leakage. Format: in vivo, Dutch Belted rabbit.
The mark [13] stands for this setting: listed as Polymorph IV micronized.

In the case of `O=C(O)[C@H](O)[C@@H](O)C(=O)O` [(+)-L-Tartaric acid], in [1], the “HPLC Purity after stability studies 25° C./60% RH” value is 96.66; the “HPLC Purity after stability studies 40° C./75% RH” value stood at 96.24; the “HPLC Purity after stability studies 80° C.” value was 93.24; the “Stability-3 days slurry in H2O (25° C.) and 4 days drying at 32° C./0% RH, HPLC” value (from here on “Stability-3 days slurry … at 32° C./0% RH, HPLC”) was 97.50.

On to `CNC(=O)c1ccccc1Sc1ccc2c(/C=C/c3ccccn3)nn(COC(=O)CCC(=O)O)c2c1` [Axitinib N-Succinoyloxymethyl Prodrug], for which, in data set [2], the “Mean Solubility” value was determined as 217.44 µg/mL; the solubility at 24 h amounted to 217 µg/mL (≈ 421 µM); the “Obtained Conc. (replicate)” value is 222.06 µg/mL and 212.82 µg/mL.

Consider `CNC(=O)c1ccccc1Sc1ccc2c(/C=C/c3ccccn3)nn(COC(=O)CCOC)c2c1` [Axitinib N-m(PEG)1-oxymethyl Prodrug, 3-Methoxy-propionic acid 6-(2-methylcarbamoyl-phenylsulfanyl)-3-((E)-2-pyridin-2-yl-vinyl)-indazol-1-ylmethyl ester], for which, in [3], the “Conc. (replicate)” value is on record as “BLOQ (“BLOQ” means “below limit of quantification”. i.e., <0.781 μg/mL)”. Moreover, the “Mean Solubility” value in [2] is recorded as “Not soluble”.

In the case of `CNC(=O)c1ccccc1Sc1ccc2c(/C=C/c3ccccn3)nn(COC(=O)CCOCCOC)c2c1` [Axitinib N-m(PEG)2-oxymethyl Prodrug, 3-(2-Methoxy-ethoxy)-propionic acid 6-(2-methylcarbamoyl-phenylsulfanyl)-3-((E)-2-pyridin-2-yl-vinyl)-indazol-1-ylmethylester], the “Conc. (replicate)” value in data set [3] is 1112 ng/mL and 1086 ng/mL. For the same molecule, in data set [2], the solubility at 24 h stood at 1.1 µg/mL (≈ 2.01 µM).

Take `CNC(=O)c1ccccc1Sc1ccc2c(/C=C/c3ccccn3)nn(COC(=O)CCOCCOCCOC)c2c1` [Axitinib N-m(PEG)3-oxymethyl Prodrug, 3-[2-(2-Methoxy-ethoxy)-ethoxy]-propionic acid 6-(2-methylcarbamoyl-phenylsulfanyl)-3-((E)-2-pyridin-2-yl-vinyl)-indazol-1-ylmethyl ester]: in data set [3], the “Conc. (replicate)” value is 6179 ng/mL and 6146 ng/mL. Further, the solubility at 24 h in data set [2] was 6.16 µg/mL (≈ 10.4 µM).

For the molecule `CNC(=O)c1ccccc1Sc1ccc2c(/C=C/c3ccccn3)nn(COC(=O)CCOCCOCCOCCOC)c2c1` [Axitinib N-m(PEG)4-oxymethyl Prodrug], in data set [2], the solubility at 24 h stood at 99.4 µg/mL (≈ 157 µM); the “Obtained Conc. (replicate)” value is 100.16 µg/mL and 98.58 µg/mL.

Consider `O=C(O)CCCC(=O)O` [Glutaric acid], for which, in data set [4] (2 hours), the “Thermodynamic solubility in PBS, pH 7.4 at 37° C., 2 hours” value was “LOD”. Besides, the “Thermodynamic solubility in PBS, pH 7.4 at 37° C., 4 hours” value in data set [4] (4 hours) is reported as “LOD”. Further, the “Thermodynamic solubility in PBS, pH 7.4 at 37° C., 24 hours” value in data set [4] (24 hours) is “LOD”. In data set [1], the “HPLC Purity after stability studies 25° C./60% RH” value turned out to be 90.81; the “HPLC Purity after stability studies 40° C./75% RH” value was 99.31; the “HPLC Purity after stability studies 80° C.” value worked out at 99.44; the “Stability-3 days slurry … at 32° C./0% RH, HPLC” value was determined as 99.80.

In the case of `CNC(=O)c1ccccc1Sc1ccc2c(/C=C/c3ccccn3)n[nH]c2c1` [Polymorph IV, axitinib], the “chemical and physical stability in an implant” value in data set [5] was “chemically and physically stable”.

Take `CNC(=O)c1ccccc1Sc1ccc2c(/C=C/c3ccccn3)n[nH]c2c1` [SAB-I micronized]: in [6], the “Solubility in PBS, Day 1” value was 0.236 µg/mL (≈ 0.611 µM); the “Solubility in PBS, Day2” value came out at 0.265 µg/mL (≈ 0.686 µM); the “Solubility in PBS, Day 5” value turned out to be 0.216 µg/mL (≈ 0.559 µM); the “Solubility in PBS, Day 6” value was 0.226 µg/mL (≈ 0.585 µM). The “Solubility in PBS, Day 8” value in data set [6] turned out to be 0.237 µg/mL (≈ 0.613 µM).

As to `CNC(=O)c1ccccc1Sc1ccc2c(/C=C/c3ccccn3)n[nH]c2c1` [SAB-I non-micronized], in data set [6], the “Solubility in PBS, Day 1” value turned out to be 0.153 µg/mL (≈ 0.396 µM); the “Solubility in PBS, Day2” value was 0.228 µg/mL (≈ 0.59 µM); the “Solubility in PBS, Day 5” value turned out to be 0.190 µg/mL (≈ 0.492 µM); the “Solubility in PBS, Day 6” value came out at 0.194 µg/mL (≈ 0.502 µM). The “Solubility in PBS, Day 8” value in data set [6] was 0.188 µg/mL (≈ 0.486 µM).

With `CNC(=O)c1ccccc1Sc1ccc2c(/C=C/c3ccccn3)n[nH]c2c1` [SAB-I super-micronized], in data set [6], the “Solubility in PBS, Day 1” value came out at 0.246 µg/mL (≈ 0.637 µM); the “Solubility in PBS, Day2” value amounted to 0.277 µg/mL (≈ 0.717 µM); the “Solubility in PBS, Day 5” value stood at 0.256 µg/mL (≈ 0.662 µM); the “Solubility in PBS, Day 6” value amounted to 0.253 µg/mL (≈ 0.655 µM). The “Solubility in PBS, Day 8” value in data set [6] was found to be 0.247 µg/mL (≈ 0.639 µM).

With `CNC(=O)c1ccccc1Sc1ccc2c(/C=C/c3ccccn3)n[nH]c2c1` [SAB-I, axitinib], in “Solubility of axitinib”, the solubility at 5 days came to 0.2 µg/mL (≈ 0.517 µM).

For `CNC(=O)c1ccccc1Sc1ccc2c(/C=C/c3ccccn3)n[nH]c2c1` [axitinib polymorph IV], the “Equilibrium solubility in PBS, Average (Days 5-8)” value in data set [6] was “about 0.435 μg/mL”. In data set [6] (setting [13]), the “Equilibrium solubility in PBS, Average (Days 5-8)” value was found to be 0.435 µg/mL; the “Solubility in PBS, Day 1” value came out at 0.678 µg/mL (≈ 1.75 µM); the “Solubility in PBS, Day2” value came out at 0.479 µg/mL (≈ 1.24 µM); the “Solubility in PBS, Day 5” value came to 0.413 µg/mL (≈ 1.07 µM). In data set [6] (setting [13]), the “Solubility in PBS, Day 6” value was found to be 0.443 µg/mL (≈ 1.15 µM) and the “Solubility in PBS, Day 8” value came out at 0.449 µg/mL (≈ 1.16 µM).

For the molecule `CNC(=O)c1ccccc1Sc1ccc2c(/C=C/c3ccccn3)n[nH]c2c1` [axitinib polymorph SAB-I], the thermodynamic solubility at 5 days in the data set “physchem [7]” was ~0.223 µg/mL (≈ 0.577 µM). Further, in “physchem [8]” (solubility in 25%/75% (v/v) ethanol/water), the solubility is 13.4 µg/mL (≈ 34.7 µM). For the same molecule, in [6] (PBS pH 7.2 to 7.4, 37° C., after five days of incubation), the “solubility in PBS” value is reported as “less than 0.3 μg/mL”.

On to `CNC(=O)c1ccccc1Sc1ccc2c(/C=C/c3ccccn3)n[nH]c2c1` [axitinib, N-methyl-2-[3-((E)-2-pyridin-2-yl-vinyl)-1H-indazol-6-ylsulfanyl]-benzamide], for which the vitreous half-life in [9] is 2 h. Moreover, the solubility in the data set “physchem [8]” (mean solubility value in 25%/75% (v/v) ethanol/water) amounted to 18.3 µg/mL (≈ 47.4 µM). Besides, the “Axitinib concentrations in plasma” value in data set [10] is “No measurable amount of axitinib was detected”. Moreover, the “clearance half-life (t1/2)” value in data set [11] is on record as “a few hours”.

With “Bevacizumab: Avastin (bevacizumab), comparator in the VEGF challenge study”, the “leakage score (mean)” value with retinal vessel leakage (after 60 days, untreated eyes 3.2) was 3.1; with retinal vessel leakage (going further beyond 60 days), 3.7; with retinal vessel leakage (up to 31 days), 0.0. Besides, the “Leakage Scores (average)” value was determined as 0.0 in [12] (Day 7); 0.0 in [12] (Day 17); 0.0 in data set [12] (Day 31); 1.0 in [12] (Day 45); 3.1 in data set [12] (Day 59); 3.7 in data set [12] (Day 73).

Consider Citric Acid, for which, in data set [1], the “HPLC Purity after stability studies 25° C./60% RH” value is on record as 90.78; the “HPLC Purity after stability studies 40° C./75% RH” value came to 93.23; the “HPLC Purity after stability studies 80° C.” value was found to be 86.88; the “Stability-3 days slurry … at 32° C./0% RH, HPLC” value was determined as 96.24.

For Fumaric Acid, in [1], the “HPLC Purity after stability studies 25° C./60% RH” value is given as 99.60; the “HPLC Purity after stability studies 40° C./75% RH” value came to 99.64; the “HPLC Purity after stability studies 80° C.” value is on record as 99.47; the “Stability-3 days slurry … at 32° C./0% RH, HPLC” value turned out to be 99.76.

For the molecule “aflibercept: anti-VEGF agent, aflibercept intravitreal injection by Regeneron”, in data set [11], the “clearance half-life (t1/2)” value is listed as “several days”.

As for “ranibizumab: anti-VEGF agent, ranibizumab injection by Genentech”, the “clearance half-life (t1/2)” value in data set [11] is “several days”.

By solubility is commonly meant the concentration that dissolves in the medium under given conditions. By thermodynamic solubility is commonly meant solubility found after equilibrating the solid with the medium.
